Assays:
Format in all cases: cell-based
NCI-H226 = assay: Mesothelioma cell line proliferation assay (ATPlite), NCI-H226; settings: Homo sapiens, 144 h; NCI-H226 cells, 6 days, ATPlite cell viability
Method: (§1) Mesothelioma cell lines, NCI-H226 and NCI-H2052 (all sourced from the ATCC cell culture collection) are plated in 96-well plates (Corning® 96 Well White Polystyrene Microplate clear flat bottom, white polystyrene (TC-Treated)), at 1500 cells/well in full medium (RPMI 1640 ATCC modification with L-glutamine, HEPES, Phenol Red, Sodium Pyruvate, High glucose, Low sodium bicarbonate and 10% fetal bovine serum). Cells are incubated overnight at 37° C. in an incubator with 5% CO2. Then compounds, dissolved in DMSO, are added in dose-response. Cells are incubated with compound dilutions for another 6 days at 37° C. in an incubator with 5% CO2. Cell viability is quantitated using the ATPlite kit (Perkin-Elmer) and the luminescence is read-out using an Envision instrument (Perkin-Elmer). The amount of relative light units produced using the ATPlite kit is used to calculated percent of inhibition.
(§2) The activities of example compounds tested are depicted in the table below. The activity ranges A, B and C refer to EC50 values in the mesothelioma cell line proliferation assay as described as follows: “A”: EC50<1 μM; “B”: 1 μM s EC50≤10 μM and “C”: EC50>10 μM. NT: not tested.

NCI-H2052 = assay: Mesothelioma cell line proliferation assay (ATPlite), NCI-H2052; settings: Homo sapiens, NCI-H2052, 144 h, NCI-H2052 cells, 6 days, ATPlite cell viability
Method: as §1, §2

[1] = tested on: YAP/TAZ-TEAD transcription; assay: Reporter gene assay for measuring the inhibition of YAP/TAZ-TEAD transcription (TEAD-responsive element luciferase reporter in Hek293T cells); settings: Homo sapiens, HEK-293T, 24 hours incubation
Summary of the method: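 Percent inhibition, scaled between vehicle (0%) and a positive control inhibitor (100%), came from SteadyLite luciferase signal after 24 h compound exposure at 37 °C/5% CO2. Cells: Hek293T transiently carrying a TEAD-responsive luciferase reporter; EC50 derived.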

SMILES | EC50 (NCI-H226) | EC50 (NCI-H2052) | EC50 [1]
C=CC(=O)Nc1cncc(-c2cccc(-c3ccn(Cc4ccccc4)n3)c2)c1 [compound 004, N-(5-(3-(1-benzyl-1H-pyrazol-3-yl)phenyl)pyridin-3-yl)acrylamide] | 1 to 10 µM | – | < 1 µM
NS(=O)(=O)CCNc1ccc(-c2ccccc2)cc1-c1ccn(Cc2cccnc2)n1 [compound 054, 2-((3-(1-(pyridin-3-ylmethyl)-1H-pyrazol-3-yl)-[1,1′-biphenyl]-4-yl)amino)ethane-1-sulfonamide] | < 1 µM | – | < 1 µM
C=CC(=O)NCCNc1ccc(-c2ccccc2)cc1-c1ccn(Cc2cccnc2)n1 [compound 075, N-(2-((3-(1-(pyridin-3-ylmethyl)-1H-pyrazol-3-yl)-[1,1′-biphenyl]-4-yl)amino)ethyl)acrylamide] | < 1 µM | – | 1 to 20 µM
CNS(=O)(=O)CCNc1ccc(-c2cccc(F)c2)cc1-c1ccn(Cc2cccnc2)n1 [compound 088] | > 10 µM | – | < 1 µM
CNS(=O)(=O)CCNc1ccc(-c2ccc(Cl)cc2)cc1-c1ccn(C)n1 [compound 121, 2-((4′-chloro-3-(1-methyl-1H-pyrazol-3-yl)-[1,1′-biphenyl]-4-yl)amino)-N-methylethane-1-sulfonamide] | 1 to 10 µM | – | < 1 µM
CCC(=O)NCc1cc(=O)n(-c2ccc(F)cc2)cc1-c1ccn(C)n1 [compound 236, N-((1-(4-fluorophenyl)-5-(1-methyl-1H-pyrazol-3-yl)-2-oxo-1,2-dihydropyridin-4-yl)methyl)propionamide] | – | – | 1 to 20 µM
Cn1ccc(-c2cn(-c3ccc(F)cc3)c(=O)cc2CNS(C)(=O)=O)n1 [compound 237, N-((1-(4-fluorophenyl)-5-(1-methyl-1H-pyrazol-3-yl)-2-oxo-1,2-dihydropyridin-4-yl)methyl)methanesulfonamide] | – | – | > 20 µM
CNS(=O)(=O)NCc1cc(=O)n(-c2ccc(F)cc2)cc1-c1ccn(C)n1 [compound 238, N-methyl, N′-((1-(4-fluorophenyl)-5-(1-methyl-1H-pyrazol-3-yl)-2-oxo-1,2-dihydropyridin-4-yl)methyl)sulfamide] | – | – | > 20 µM
CCC(=O)NCc1ccc(-c2ccc(F)cc2)cc1-n1ccc(C)n1 [compound 242, N-((4′-fluoro-3-(3-methyl-1H-pyrazol-1-yl)-[1,1′-biphenyl]-4-yl)methyl)propionamide] | – | – | > 20 µM
CCC(=O)NCc1cnc(-c2ccc(F)cc2)cc1-n1ncc(C)n1 [compound 245, N-((6-(4-fluorophenyl)-4-(4-methyl-2H-1,2,3-triazol-2-yl)pyridin-3-yl)methyl)propionamide] | – | – | < 1 µM
CCC(=O)NCc1cnc(-c2ccc(F)cc2)cc1-n1nnc(C)n1 [compound 251, N-((6-(4-fluorophenyl)-4-(5-methyl-2H-tetrazol-2-yl)pyridin-3-yl)methyl)propionamide] | – | – | > 20 µM
CCC(=O)NCc1cnc(-c2ccc(F)cc2)cc1-n1nnnc1C [compound 252, N-((6-(4-fluorophenyl)-4-(5-methyl-1H-tetrazol-1-yl)pyridin-3-yl)methyl)propionamide] | – | – | > 20 µM
CCC(=O)N1CCC(c2ccc(-c3ccc(F)cc3)cc2-c2ccn(C)n2)C1 (centres unmarked) [compound 259, 1-(3-(4′-fluoro-3-(1-methyl-1H-pyrazol-3-yl)-[1,1′-biphenyl]-4-yl)pyrrolidin-1-yl)propan-1-one] | – | – | 1 to 20 µM
CS(=O)(=O)N1CCC(c2ccc(-c3ccc(F)cc3)cc2-c2ccn(C(F)F)n2)C1 (centres unmarked) [compound 260, 1-(difluoromethyl)-3-(4′-fluoro-4-(1-(methylsulfonyl)pyrrolidin-3-yl)-[1,1′-biphenyl]-3-yl)-1H-pyrazole] | – | – | > 20 µM

Continued, values first:

EC50 (NCI-H226) | EC50 (NCI-H2052) | EC50 [1] | SMILES
< 1 µM | 1 to 10 µM | < 1 µM | C=CC(=O)NCc1cnc(C2CCC(F)(F)CC2)cc1-c1ccn(C(F)F)n1 [Cpd. No. 223, N-((6-(4,4-difluorocyclohexyl)-4-(1-(difluoromethyl)-1H-pyrazol-3-yl)pyridin-3-yl)methyl)acrylamide]
< 1 µM | 1 to 10 µM | < 1 µM | C=CC(=O)NCc1cc(-c2ccc(F)cc2)cc(-c2ccn(C(F)F)n2)n1 [Cpd. No. 225, N-((6-(1-(difluoromethyl)-1H-pyrazol-3-yl)-4-(4-fluorophenyl)pyridin-2-yl)methyl)acrylamide]
< 1 µM | – | < 1 µM | C=CC(=O)NCc1ccc(-c2ccccc2)cc1-c1ccn(C)n1 [compound 135, N-((3-(1-methyl-1H-pyrazol-3-yl)-[1,1′-biphenyl]-4-yl)methyl)acrylamide]
– | – | < 1 µM | C=CC(=O)NCc1cnc(-c2ccc(Cl)cc2)cc1-c1ccn(C(F)F)n1 [compound 210, N-((6-(4-chlorophenyl)-4-(1-(difluoromethyl)-1H-pyrazol-3-yl)pyridin-3-yl)methyl)acrylamide]
– | – | 1 to 20 µM | CCC(=O)NCc1cnc(-c2cccc(F)c2)cc1-c1ccn(C(F)F)n1 [compound 212, N-((4-(1-(difluoromethyl)-1H-pyrazol-3-yl)-6-(3-fluorophenyl)pyridin-3-yl)methyl)propionamide]
– | – | > 20 µM | CCC(=O)NCc1cnc(-c2cccc(Cl)c2)cc1-c1ccn(C(F)F)n1 [compound 214, N-((6-(3-chlorophenyl)-4-(1-(difluoromethyl)-1H-pyrazol-3-yl)pyridin-3-yl)methyl)propionamide]
– | – | > 20 µM | CCC(=O)NCc1cnc(-c2cccc(C(F)(F)F)c2)cc1-c1ccn(C(F)F)n1 [compound 216, N-((4-(1-(difluoromethyl)-1H-pyrazol-3-yl)-6-(3-(trifluoromethyl)phenyl)pyridin-3-yl)methyl)propionamide]
– | – | < 1 µM | C=CC(=O)NCc1cnc(-c2ccc(C(F)F)cc2)cc1-c1ccn(C(F)F)n1 [compound 217, N-((4-(1-(difluoromethyl)-1H-pyrazol-3-yl)-6-(4-(difluoromethyl)phenyl)pyridin-3-yl)methyl)acrylamide]
– | – | < 1 µM | C=CC(=O)NCc1cc(-c2ccn(C(F)F)n2)cc(-c2ccc(F)cc2)n1 [compound 218, N-((4-(1-(difluoromethyl)-1H-pyrazol-3-yl)-6-(4-fluorophenyl)pyridin-2-yl)methyl)acrylamide]
– | – | < 1 µM | C=CC(=O)NCc1cnc(-c2ccc(C#N)cc2)cc1-c1ccn(C(F)F)n1 [compound 219, N-((6-(4-cyanophenyl)-4-(1-(difluoromethyl)-1H-pyrazol-3-yl)pyridin-3-yl)methyl)acrylamide]
– | – | < 1 µM | C=CC(=O)NCc1cnc(-c2cccc(C#N)c2)cc1-c1ccn(C(F)F)n1 [compound 220, N-((6-(3-cyanophenyl)-4-(1-(difluoromethyl)-1H-pyrazol-3-yl)pyridin-3-yl)methyl)acrylamide]
– | – | 1 to 20 µM | C=CC(=O)NCc1cnc(-c2ccn(C(F)F)n2)cc1N1CCC(F)(F)CC1 [compound 222, N-((6-(1-(difluoromethyl)-1H-pyrazol-3-yl)-4-(4,4-difluoropiperidin-1-yl)pyridin-3-yl)methyl)acrylamide]
– | – | < 1 µM | CCC(=O)NCc1cc(-c2ccc(F)cc2)cc(-c2ccn(C(F)F)n2)n1 [compound 226, N-((6-(1-(difluoromethyl)-1H-pyrazol-3-yl)-4-(4-fluorophenyl)pyridin-2-yl)methyl)propionamide]
– | – | < 1 µM | C=CC(=O)NCc1cnc(-c2ccc(F)cc2)cc1-c1cnn(C(F)F)n1 [compound 230, N-((4-(2-(difluoromethyl)-2H-1,2,3-triazol-4-yl)-6-(4-fluorophenyl)pyridin-3-yl)methyl)acrylamide]
– | – | < 1 µM | CCC(=O)NCc1cnc(-c2ccc(F)cc2)cc1-c1cc2n(n1)CCCC2 [compound 232, N-((6-(4-fluorophenyl)-4-(4,5,6,7-tetrahydropyrazolo[1,5-a]pyridin-2-yl)pyridin-3-yl)methyl)propionamide]
– | – | > 20 µM | C=CC(=O)NCc1cnc(-c2ccc(F)cc2)cc1-n1ccc(C(F)(F)F)n1 [compound 246, N-((6-(4-fluorophenyl)-4-(3-(trifluoromethyl)-1H-pyrazol-1-yl)pyridin-3-yl)methyl)acrylamide]
– | – | < 1 µM | C=CC(=O)NCc1cnc(-c2ccc(F)cc2)cc1-n1ccc(C2CC2)n1 [compound 247, N-((4-(3-cyclopropyl-1H-pyrazol-1-yl)-6-(4-fluorophenyl)pyridin-3-yl)methyl)acrylamide]
– | – | < 1 µM | C=CC(=O)NCc1cnc(-c2ccc(F)cc2)cc1-n1cc(C(F)(F)F)cn1 [compound 248, N-((6-(4-fluorophenyl)-4-(4-(trifluoromethyl)-1H-pyrazol-1-yl)pyridin-3-yl)methyl)acrylamide]
– | – | > 20 µM | C=CC(=O)NCc1cnc(-c2ccc(F)cc2)cc1-n1nnnc1C [compound 250, N-((6-(4-fluorophenyl)-4-(5-methyl-1H-tetrazol-1-yl)pyridin-3-yl)methyl)acrylamide]
– | – | > 20 µM | CNS(=O)(=O)N1CCC(c2cnc(-c3ccc(F)cc3)cc2-c2ccn(C(F)F)n2)C1 (centres unmarked) [compound 263, 3-(4-(1-(difluoromethyl)-1H-pyrazol-3-yl)-6-(4-fluorophenyl)pyridin-3-yl)-N-methylpyrrolidine-1-sulfonamide]
